Like-named read-outs stand apart in the source and are kept apart here.
Biological target: T1, Recombinant human renin (Homo sapiens, UniProt P00797)
T1 construct: isolate the active form (residues 67-406); made in house; host or cells: FreeStyle 293-F cells, transient expression of pcDNA3.1(+)/hREN
T1 sequence (P00797 67-406): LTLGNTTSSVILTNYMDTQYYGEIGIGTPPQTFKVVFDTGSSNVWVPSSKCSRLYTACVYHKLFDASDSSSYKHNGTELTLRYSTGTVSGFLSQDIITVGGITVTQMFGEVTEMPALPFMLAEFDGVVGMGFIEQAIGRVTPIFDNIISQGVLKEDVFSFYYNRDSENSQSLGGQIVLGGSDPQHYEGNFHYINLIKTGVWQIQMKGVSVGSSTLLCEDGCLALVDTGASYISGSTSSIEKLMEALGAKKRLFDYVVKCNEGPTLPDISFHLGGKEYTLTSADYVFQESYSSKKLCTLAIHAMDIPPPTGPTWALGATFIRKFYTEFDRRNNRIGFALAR
Assay: In vitro enzymatic activity assay of renin inhibitors (fluorescence, QXL520/HiLyteFluo488 peptide substrate)
Assay type: biochemical

[1] = recombinant human renin 3 nM, 1 μM substrate, pre-incubated 10 minutes at 37° C., incubation one hour, pH 7.4, 5% DMSO, read-out: IC50 of Exemplified Compounds Against Renin

IC50 [1] [nM]	SMILES	IC50 [nM]
> 1000	COCCCOc1cccc(-n2c(-c3ccccc3)c(C(=O)N3CCNCC3)n(CCNS(=O)(=O)c3ccccc3)c2=O)c1 [Example 183, N-(2-(3-(3-(3-Methoxypropoxy)phenyl)-2-oxo-4-phenyl-5-(piperazine-1-carbonyl)-2,3-dihydro-1H-imidazol-1-yl)ethyl)benzenesulfonamide]	
500 to 1000	CC(=O)N1CCCC(n2c(-c3ccccc3)c(C(=O)N3CCNC[C@H]3Cc3ccccc3)[nH]c2=O)C1 (stereo partly drawn) [Example 104, 1-(1-Acetylpiperidin-3-yl)-4-((R)-2-benzylpiperazine-1-carbonyl)-5-phenyl-1H-imidazol-2(3H)-one]	
100 to 500	COc1cccc(Cn2c(C(=O)N3CCNCC3)c(-c3ccccc3)n(-c3ccccc3C)c2=O)c1 [Example 143, 1-(3-Methoxybenzyl)-4-phenyl-5-(piperazine-1-carbonyl)-3-o-tolyl-1H-imidazol-2(3H)-one]	
< 100	O=C(c1c(-c2ccccc2)n(-c2cccc(N3CCOCC3)c2)c(=O)n1CCCNS(=O)(=O)c1ccccc1Cl)N1CCNCC1 [Example 194, 2-Chloro-N-(3-(3-(3-morpholinophenyl)-2-oxo-4-phenyl-5-(piperazine-1-carbonyl)-2,3-dihydro-1H-imidazol-1-yl)propyl)benzenesulfonamide]	
500 to 1000	O=C(c1c(-c2ccccc2)n(C2CCCN(S(=O)(=O)c3ccccc3)C2)c(=O)n1Cc1ccccc1)N1CCNCC1 (centres unmarked) [Example 96, 1-Benzyl-4-phenyl-3-(1-(phenylsulfonyl)piperidin-3-yl)-5-(piperazine-1-carbonyl)-1H-imidazol-2(3H)-one]	
< 100	O=C(c1[nH]c(=O)n(-c2ccccc2)c1-c1ccccc1)N1CCNC[C@H]1Cc1ccccc1 [Example 109, (R)-4-(2-Benzylpiperazine-1-carbonyl)-1,5-diphenyl-1H-imidazol-2(3H)-one]	
	Cc1ccccc1-n1c(-c2ccccc2)c(C(=O)N2CCNCC2)n(CCNC(=O)Oc2ccccc2)c1=O [Example 248, Phenyl 2-(2-oxo-4-phenyl-5-(piperazine-1-carbonyl)-3-o-tolyl-2,3-dihydro-1H-imidazol-1-yl)ethylcarbamate]	> 1000
< 100	O=C(Nc1ccccc1-n1c(-c2ccccc2)c(C(=O)N2CCNC[C@H]2Cc2ccccc2)[nH]c1=O)c1ccccc1 [Example 124, (R)—N-(2-(4-(2-Benzylpiperazine-1-carbonyl)-2-oxo-5-phenyl-2,3-dihydro-1H-imidazol-1-yl)phenyl)benzamide]	
> 1000	COc1cccc(S(=O)(=O)NCCn2c(C(=O)N3CCNCC3)c(-c3ccccc3)n(-c3ccccc3C)c2=O)c1 [Example 209, 3-Methoxy-N-(2-(2-oxo-4-phenyl-5-(piperazine-1-carbonyl)-3-o-tolyl-2,3-dihydro-1H-imidazol-1-yl)ethyl)benzenesulfonamide]	
> 1000	CCOC(=O)NCCCn1c(C(=O)N2CCNCC2)c(-c2ccccc2)n(-c2ccccc2C)c1=O [Example 254, Ethyl 3-(2-oxo-4-phenyl-5-(piperazine-1-carbonyl)-3-o-tolyl-2,3-dihydro-1H-imidazol-1-yl)propylcarbamate]	
500 to 1000	Cc1ccccc1-n1c(-c2ccccc2)c(C(=O)N2CCNCC2)n(CCNC(=O)c2ccccc2)c1=O [Example 166, N-(2-(2-oxo-4-Phenyl-5-(piperazine-1-carbonyl)-3-o-tolyl-2,3-dihydro-1H-imidazol-1-yl)ethyl)benzamide]	
> 1000	COCCCOc1cccc(-n2c(-c3ccccc3)c(C(=O)N3CCNCC3)n(Cc3cccc(Oc4ccccc4)c3)c2=O)c1 [Example 13, 1-(3-(3-methoxypropoxy)phenyl)-3-(3-phenoxybenzyl)-5-phenyl-4-(piperazine-1-carbonyl)-1H-imidazol-2(3H)-one]	
100 to 500	COc1ccccc1-n1c(-c2ccccc2)c(C(=O)N2CCNCC2)n(Cc2cccc(Oc3ccccc3)c2)c1=O [Example 146, 1-(2-Methoxyphenyl)-3-(3-phenoxybenzyl)-5-phenyl-4-(piperazine-1-carbonyl)-1H-imidazol-2(3H)-one]	
> 1000	COCCCOc1cccc(-n2c(-c3cccc(Cl)c3)c(C(=O)N3CCNCC3)[nH]c2=O)c1 [Example 42, 5-(3-Chlorophenyl)-1-(3-(3-methoxypropoxy)phenyl)-4-(piperazine-1-carbonyl)-1H-imidazol-2(3H)-one]	

Reference: patent publication US8148367B2 (Takeda Pharmaceutical Company Limited, priority 2008, dated 2012)
